From US11147802B2, “Substituted oxadiazole chemical compound and composition containing said chemical compound and use thereof” (Shenzhen TargetRx, Inc., priority 2016, dated 2021)

What was measured:
[1] = Metabolic stability in rat liver microsomes; format: in vitro ADME; conditions: Sprague-Dawley (SD), pH 7.4, 1 μM compound, 0.5 mg/mL protein, 37° C.; for half-life at 1 μM: read-out: Rat liver microsomes t1/2
Method: (§1) Metabolic Stability Evaluation
(§2) Experiments in microsomes: Human liver microsomes: 0.5 mg/mL, Xenotech; Rat liver microsomes: 0.5 mg/mL, Xenotech; Coenzyme (NADPH/NADH): 1 mM, Sigma Life Science; Magnesium chloride: 5 mM, 100 mM phosphate buffer (pH 7.4).
(§3) Preparation of stock solution: Powder of the example compound was accurately weighed and dissolved in DMSO to 5 mM.
(§4) Preparation of phosphate buffer (100 mM, pH7.4): A pre-formulated 0.5M potassium dihydrogen phosphate (150 mL) was mixed with 0.5M dibasic potassium phosphate (700 mL). The pH of the mixture was adjusted to 7.4 with 0.5M dibasic potassium phosphate solution. The mixture was diluted 5-fold with ultrapure water before use, and magnesium chloride was added to obtain a phosphate buffer (100 mM) containing 100 mM potassium phosphate, 3.3 mM magnesium chloride, pH 7.4.
(§5) A NADPH regeneration system solution (containing 6.5 mM NADP, 16.5 mM G-6-P, 3 U/mL G-6-PD, 3.3 mM magnesium chloride) was prepared and placed on wet ice prior to use.
(§6) Preparation of stop solution: acetonitrile solution containing 50 ng/mL propranolol hydrochloride and 200 ng/mL tolbutamide (internal standard). 25057.5 μL of phosphate buffer (pH 7.4) was taken into a 50 mL centrifuge tube, to which 812.5 μL human liver microsomes were added, and mixed to obtain a liver microsome dilution solution with a protein concentration of 0.625 mg/mL. 25057.5 μL of phosphate buffer (pH 7.4) was taken into a 50 mL centrifuge tube, to which 812.5 μL SD rat liver microsomes were added, and mixed to obtain a liver microsome dilution solution with a protein concentration of 0.625 mg/mL.
(§7) Incubation of the samples: The stock solution of the respective compound was respectively diluted to 0.25 mM with an aqueous solution containing 70% acetonitrile, and used as a working solution, ready for use. 398 μL of the dilution solution of human liver microsomes or rat liver microsome were added to a 96-well incubation plate (N=2), respectively, and 2 μL of 0.25 mM working solution was added and mixed.
(§8) Metabolic stability assay: 300 μL of pre-chilled stop solution was added to each well of a 96-well deep well plate and placed on ice as a stop plate. The 96 well incubation plate and NADPH regeneration system were placed in a 37° C. water bath box, shaken at 100 rpm and pre-incubated for 5 min. 80 μL of incubation solution was taken out from each well of the incubation plate and added to the stop plate, mixed, and replenished with 20 μL of NADPH regeneration system solution as a 0-min sample. 80 μL of NADPH regeneration system solution was added to each well of the incubation plate to start the reaction and start counting. […] Separately, 100 μL of the reaction solution was taken at 10, 30, and 90 min reaction, respectively, added to a stop plate, and vortexed for 3 minutes to terminate the reaction. The stop plate was centrifuged at 5000×g at 4° C. for 4 min. 100 μL of the supernatant was added to a 96-well plate to which 100 μL of distilled water was previously added, mixed, and analyzed by LC-MS/MS.
(§9) Data analysis: The peak areas of the corresponding compound and internal standard were detected by LC-MS/MS system, and the ratio of the peak area of the compound to the internal standard was calculated.

[2] = Metabolic stability in human liver microsomes; format: in vitro ADME; conditions: pH 7.4, 1 μM compound, 0.5 mg/mL protein, 37° C.; for half-life at 1 μM: read-out: Human liver microsomes t1/2
Method: as §1, §2, §3, §4, §5, §6, §7, §8, §9

Compound `NS(=O)(=O)NCCNc1nonc1C(=NO)Nc1ccc(F)c(Br)c1` [Epacadostat, reference compound] has a microsomal CLint at 1 μM [1] of 20.1 µL/min/mg, a half-life at 1 μM [1] of 1.15 h and a microsomal CLint at 1 μM [2] of 9.6 µL/min/mg. It also gave a half-life at 1 μM [2] of 2.4 h.
`[2H]c1c([2H])c(/N=C(/NO)c2nonc2NCC([2H])([2H])NS(N)(=O)=O)c([2H])c(Br)c1F` [Compound 76, 4-({2-[(sulfamoyl)amino]-1,1-d2-ethyl}amino)-N-(2,5,6-d3-3-bromo-4-fluoro-phenyl)-N′-hydroxy-1,2,5-oxadiazole-3-carboximidamide] showed a microsomal CLint at 1 μM [1] of 22.6 µL/min/mg, a half-life at 1 μM [1] of 1.02 h and a microsomal CLint at 1 μM [2] of under 9.6 µL/min/mg. For the same compound, the half-life at 1 μM [2] was over 2.5 h.
`[2H]c1cc(F)c(Br)c([2H])c1/N=C(/NO)c1nonc1NCCNS(N)(=O)=O` [Compound 22] showed a microsomal CLint at 1 μM [1] of 19.6 µL/min/mg, a half-life at 1 μM [1] of 1.18 h and a microsomal CLint at 1 μM [2] of under 9.6 µL/min/mg. It also gave a half-life at 1 μM [2] of over 2.5 h.
In the case of `[2H]c1cc(F)c(Br)c([2H])c1/N=C(/NO)c1nonc1NC([2H])([2H])C([2H])([2H])NS(N)(=O)=O` [Compound 57, 4-({2-[(sulfamoyl)amino]-1,1,2,2-d4-ethyl}amino)-N-(2,6-d2-3-bromo-4-fluoro-phenyl)-N′-hydroxy-1,2,5-oxadiazole-3-carboximidamide], the microsomal CLint at 1 μM [2] was under 9.6 µL/min/mg and the half-life at 1 μM [2] was over 2.5 h.
With `[2H]C([2H])(Nc1nonc1/C(=N\c1ccc(F)c(Br)c1)NO)C([2H])([2H])NS(N)(=O)=O` [Compound 47, 4-({2-[(sulfamoyl)amino]-1,1,2,2-d4-ethyl}amino)-N-(3-bromo-4-fluorophenyl)-N′-hydroxy-1,2,5-oxadiazole-3-carboximidamide] the microsomal CLint at 1 μM [1] was 18.7 µL/min/mg, the half-life at 1 μM [1] was 1.23 h and the microsomal CLint at 1 μM [2] was under 9.6 µL/min/mg. The half-life at 1 μM [2] was over 2.5 h.
`[2H]c1cc(/N=C(/NO)c2nonc2NC([2H])([2H])C([2H])([2H])NS(N)(=O)=O)cc(Br)c1F` [Compound 52] showed a microsomal CLint at 1 μM [1] of 19.2 µL/min/mg, a half-life at 1 μM [1] of 1.2 h and a microsomal CLint at 1 μM [2] of under 9.6 µL/min/mg. The half-life at 1 μM [2] was over 2.5 h.
`[2H]c1cc(F)c(Br)c([2H])c1/N=C(/NO)c1nonc1NC([2H])([2H])CNS(N)(=O)=O` [Compound 81, 4-({2-[(sulfamoyl)amino]-1,1-d2-ethyl}amino)-N-(2,6-d2-3-bromo-4-fluoro-phenyl)-N′-hydroxy-1,2,5-oxadiazole-3-carboximidamide] showed a microsomal CLint at 1 μM [1] of 18.5 µL/min/mg, a half-life at 1 μM [1] of 1.25 h and a microsomal CLint at 1 μM [2] of under 9.6 µL/min/mg. For the same compound, the half-life at 1 μM [2] was over 2.5 h.
Compound `[2H]c1c([2H])c(/N=C(/NO)c2nonc2NC([2H])([2H])C([2H])([2H])NS(N)(=O)=O)c([2H])c(Br)c1F` [Compound 71, 4-({2-[(sulfamoyl)amino]-1,1,2,2-d4-ethyl}amino)-N-(2,5,6-d3-3-bromo-4-fluoro-phenyl)-N′-hydroxy-1,2,5-oxadiazole-3-carboximidamide] has a microsomal CLint at 1 μM [1] of 20.5 µL/min/mg, a half-life at 1 μM [1] of 1.13 h and a microsomal CLint at 1 μM [2] of under 9.6 µL/min/mg. The half-life at 1 μM [2] was over 2.5 h.
For `[2H]c1cc(/N=C(/NO)c2nonc2NCCNS(N)(=O)=O)cc(Br)c1F` [Compound 32, 4-({2-[(sulfamoyl)amino]ethyl}amino)-N-(3-bromo-4-fluoro-5-d-phenyl)-N′-hydroxy-1,2,5-oxadiazole-3-carboximidamide], the microsomal CLint at 1 μM [1] was 21.3 µL/min/mg, the half-life at 1 μM [1] was 1.08 h and the microsomal CLint at 1 μM [2] was under 9.6 µL/min/mg. The half-life at 1 μM [2] was over 2.5 h.
In the case of `[2H]C([2H])(CNc1nonc1/C(=N\c1ccc(F)c(Br)c1)NO)NS(N)(=O)=O` [Compound 41, 4-({2-[(sulfamoyl)amino]-2,2-d2-ethyl}amino)-N-(3-bromo-4-fluorophenyl)-N′-hydroxy-1,2,5-oxadiazole-3-carboximidamide], the microsomal CLint at 1 μM [1] was 21 µL/min/mg, the half-life at 1 μM [1] was 1.1 h and the microsomal CLint at 1 μM [2] was under 9.6 µL/min/mg. For the same compound, the half-life at 1 μM [2] was over 2.5 h.
With `[2H]C([2H])(CNS(N)(=O)=O)Nc1nonc1/C(=N\c1ccc(F)c(Br)c1)NO` [Compound 11] the microsomal CLint at 1 μM [1] was 18.9 µL/min/mg, the half-life at 1 μM [1] was 1.22 h and the microsomal CLint at 1 μM [2] was under 9.6 µL/min/mg. It also gave a half-life at 1 μM [2] of over 2.5 h.
Compound `[2H]c1c([2H])c(/N=C(/NO)c2nonc2NCCNS(N)(=O)=O)c([2H])c(Br)c1F` [Compound 66] has a microsomal CLint at 1 μM [1] of 17.5 µL/min/mg, a half-life at 1 μM [1] of 1.32 h and a microsomal CLint at 1 μM [2] of under 9.6 µL/min/mg. The half-life at 1 μM [2] was over 2.5 h.
